Experimental data reported in US9314458B2, “Topical use of ingenol-3-angelate or a salt thereof to treat skin cancer” (LEO Laboratories Limited, priority 2000, dated 2016).

Assays:
PKCβ = biological target: T1, PKCβ (Homo sapiens, UniProt P05771); assay: EGFP-PKC translocation in HeLa cells (PKCβ); format: cell-based; settings: one hour
T1 construct: host or cells: HeLa cells
Description: (§1) Five EGFP-PKC isoforms (Clontech) were available for this experiment, enabling the screening of the three predominant PKC families (i.e. classical, novel and atypical PKCs). The members of the various PKC families are α, β, and γ (classical), θ (novel) and ζ (atypical).
(§2) HeLa cells were plated out in a 24-well plate containing coverslips and transfected with PKC isoforms fused to EGFP, using a commercially available effectine-transfection kit (QIAGEN, Pty. Ltd.). Cells were exposed to the transfection reagents for 16-24 hr. Subsequently, transfected cells were treated for one hour with TPA (100 ng/mL), bryostatin-1 (5 pg/mL), PEP003 (2.25 μg/mL; 5 μM) or PEP005 ([…]) 1.5 μM). Following treatment, cells were fixed on coverslips and mounted on glass slides. The slides were subsequently examined visually by fluorescence microscopy, photographed, and over 150 cells were counted/treatment/PKC isoform. Counted cells were classified according to the localisation of the PKC-EGFP fluorescence as either cytoplasmic or plasma membrane using ImagePro™ 4.1 (FIG. 5). […] The number of these cells was also counted. Results are presented as an average and standard deviation of percentages of cells (Table 1).

[1] = test system: Peripheral blood mononuclear cells (granulocytes, monocytes, lymphocytes); assay: Respiratory burst, DCFH-DA H2O2 flow cytometry; format: cell-based; settings: 15 min at 37° C.
Description: Experiments were also carried out using 2′,7′-dichlorofluorescein diacetate (DCFH-DA) to measure the production of H2O2. (J P Robinson, Oxidative burst methods, in Handbook of Flow Cytometry Methods, Wiley-Liss Inc, pp 147-149, 1993). H2O2 oxidizes the non-fluorescent probe (DCFH-DA) to a fluorescent probe that can then be detected by a flow cytometer. Peripheral blood mononuclear cells (PBMC) were extracted from a donor blood sample by lysis of heparinized blood and used in a suspension of 1×10^6/mL of phosphate buffer, pH 7.3. The cells were then incubated with DCFH-DA (1 μL/mL of 20 mM stock) for 15 minutes to allow it to be taken up and trapped by hydrolysis with cellular esterases. The cells were then stimulated by test compounds for 15 min at 37° C. Controls included in the experiment were unloaded control (cells with no DCFH-DA) and loaded control (cells with DCFH-DA, but no stimulation). These were used to monitor the non-specific oxidation of unstimulated cells. The cells were then analyzed on the flow cytometer (excitation at 488 nm, emission at 525±20 nm), gating each sample for individual cell populations—granulocytes, monocytes and lymphocytes (Table 3).

PKCγ = biological target: T2, PKCγ (Homo sapiens, UniProt P05129); assay: EGFP-PKC translocation in HeLa cells (PKCγ); format: cell-based; settings: one hour, TPA 100 ng/mL, bryostatin-1 5 pg/mL, PEP003 2.25 μg/mL (5 μM), PEP005 670 μg/mL (1.5 μM)
T2 construct: host or cells: HeLa cells
Description: as §1, §2

PKCθ = biological target: T3, PKCθ (Homo sapiens, UniProt Q04759); assay: EGFP-PKC translocation in HeLa cells (PKCθ); format: cell-based; settings: one hour, same concentrations
T3 construct: host or cells: HeLa cells
Description: as §1, §2

PKCζ = biological target: T4, PKCζ (Homo sapiens, UniProt Q05513); assay: EGFP-PKC translocation in HeLa cells (PKCζ); format: cell-based; settings: one hour, same concentrations
T4 construct: host or cells: HeLa cells
T4 sequence (Q05513 1-592): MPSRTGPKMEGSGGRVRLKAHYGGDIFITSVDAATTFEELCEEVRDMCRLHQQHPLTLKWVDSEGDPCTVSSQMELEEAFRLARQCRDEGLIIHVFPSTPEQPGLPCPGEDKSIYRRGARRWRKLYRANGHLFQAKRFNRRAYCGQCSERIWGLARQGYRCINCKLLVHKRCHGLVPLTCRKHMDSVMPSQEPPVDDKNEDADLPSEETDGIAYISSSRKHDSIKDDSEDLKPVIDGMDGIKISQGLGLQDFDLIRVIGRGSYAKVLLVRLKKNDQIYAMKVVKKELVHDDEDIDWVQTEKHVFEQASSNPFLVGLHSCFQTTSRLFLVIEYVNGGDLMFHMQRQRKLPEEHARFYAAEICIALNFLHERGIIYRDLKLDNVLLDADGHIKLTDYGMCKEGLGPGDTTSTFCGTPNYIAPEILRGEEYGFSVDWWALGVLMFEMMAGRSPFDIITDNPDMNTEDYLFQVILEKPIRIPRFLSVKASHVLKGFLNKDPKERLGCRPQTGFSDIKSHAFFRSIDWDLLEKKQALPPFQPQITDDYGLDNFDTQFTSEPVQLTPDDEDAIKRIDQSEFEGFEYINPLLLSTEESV
Description: as §1, §2

HIV-strain pNL4-3 = assay: HIV-1 replication in acutely infected PBMC (CA-p24 ELISA); format: cell-based; settings: 2.8 nM
Description: Experiments were conducted to assess the effect of the compounds of the instant invention on HIV-1 replication in acutely infected T cells. Peripheral blood mononuclear cells (PBMC) were obtained from non-HIV-1, non-HIV-2, non-Hepatitis B/C infected donors, stimulated with phytohemagglutinin-M and grown in culture media supplemented with 10 U/mL interleukin-2. The activated PBMC were infected with […] (Low Titre) and 100 ng (High Titre) of CA-p24 equivalents of the HIV-strain pNL4-3. Cells were infected for two hr after which, the virus was removed and the cells were washed with culture media. Equivalent numbers of cells were seeded into 24 well plates and compounds were added to the cultured cells that included: TPA at 8 nM and 80 nM, Ingenol at 280 nM, PEP003 at 500 nM, 50 nM and 5 nM, or PEP004 at dilutions of 1×10^4 and 1×10^5 from the stock (final concentrations). In addition, uninfected activated PBMC were grown in the presence of TPA (80 nM), Ingenol (280 nM), PEP003 (500 nM) and PEP004 (1×10^4 dilution). Other cultures were neither infected nor treated with any compound, or infected but not treated with any compound. Supernatant was removed from each culture at day 0, 3, 7, and 10. The amount of HIV-1 CA-p24 was determined using a commercially available ELISA assay. Three independent experiments were performed.

[2] = test system: peripheral blood mononuclear cells; assay: Phagocytosis with fluorescent beads; format: cell-based; settings: 30 min, whole heparinized blood
Description: Phagocytosis by peripheral blood mononuclear cells (PBMCs) was assayed (Steinkamp et al., 1982) using 1 μm Fluoresbrite™ yellow-green fluorescent latex spheres (Polysciences, Inc., Warrington, Pa.). A sample of whole, heparinized blood was treated with drug and 5×10E7 fluorescent latex beads in 10 μL of PBS added per mL of suspension. Cells were incubated and maintained in suspension for 30 min by means of a shaker platform at 37° C. The stimulated and non-stimulated samples were then lysed to isolate PBMCs. The PBMCs were run on the flow cytometer measuring FITC (excitation at 488 nm, emission at 525±20 nm), gated for fluorescence (phagocytosed spheres) and light scatter (cell size).

adenovirus 5 = assay: Adenovirus replication in human melanoma cells; format: cell-based; settings: 2 days
Description: Human melanoma cells were infected with ten-fold dilutions of adenovirus 5 in culture, treated with dilutions of PEP005, PEP006, PEP008 and PEP010 and adenovirus replication determined 2 days later by immunhistochemical detection of virus-replicating cells.

PKCα = biological target: T5, PKCα (Homo sapiens, UniProt P17252); format: cell-based; settings: HeLa, one hour; TPA 100 ng/mL, bryostatin-1 5 pg/mL, PEP003 2.25 μg/mL (5 μM)
T5 construct: host or cells: HeLa cells
Description: as §1
as §2, with “counted.” for “counted. Results are presented as an average and standard deviation of percentages of cells (Table 1).”

[3] = test system: phorbol ester binding site of PKC; assay: [3H]-phorbol dibutyrate competition assay, rat brain homogenate
Description: A competition assay was performed to determine whether the diterpene esters of the instant invention bind to the phorbol ester binding site of PKC. […] This binding was not blocked by co-incubation with bisindolylmaleimide.

[4] = test system: MM96L human melanoma cells; assay: Pretreated MM96L cells, killing by untreated leukocytes; format: cell-based; settings: targets pretreated with 60 ng/mL for 20 hr, 100:1 effector:target
Description: (§3) Leukocytes obtained by lysis of human peripheral blood were added to 5000 MM96L human melanoma cells or 7000 neonatal foreskin fibroblasts per microtitre well at effector: target ratios of 1000, 100 and 10:1. The target cells had been treated with 60 ng/mL PEP008 for 20 hr beforehand, and washed and the medium replaced before the leukocytes were added. After 48 hr incubation with the leukocytes the cultures were washed and labelled with [3H]-thymidine for 2 hr. […] Untreated leukocytes had no effect on cell survival.

[5] = test system: neonatal foreskin fibroblasts; assay: Leukocytes plus drug, killing of fibroblasts ([3H]-thymidine); format: cell-based, human; settings: 60 ng/mL, 48 hr, 100:1 effector:target
Description: (§4) Leukocytes obtained by lysis of human peripheral blood were added to 5000 MM96L human melanoma cells or 7000 neonatal foreskin fibroblasts per microtitre well at effector: target ratios of 1000, 100 and 10:1. Ing9 (60 ng/mL) was added and after 48 hr incubation the cultures were washed and labelled with [3H]-thymidine for 2 hr. […] Untreated leukocytes had no effect on cell survival.

[6] = test system: neonatal foreskin fibroblasts; assay: Pretreated fibroblasts, killing by untreated leukocytes; format: cell-based, human; settings: targets pretreated with 60 ng/mL for 20 hr, 100:1 effector:target
Description: as §3

[7] = test system: MM96L human melanoma cells; assay: Leukocytes plus drug, killing of MM96L cells ([3H]-thymidine); format: cell-based; settings: 60 ng/mL, 48 hr, 100:1 effector:target
Description: as §4

rat brain PKC = assay: PKC kinase activity, PepTag non-radioactive protein kinase assay; format: biochemical; settings: PepTag gel; various dilutions of TPA; ether extract final dilution 1 in 5; crude sap and aqueous layer diluted 1/25
Description: The kinase activity of rat brain PKC (Promega) was determined using the Peptag™ Non-Radioactive Protein Kinase Kit (Promega). Using agarose gel electrophoresis the technique visualises the opposing electrostatic charge of a fluorescently labeled peptide ([sequence]) compared to the phosphorylated version of the same peptide.
The reaction mixture was separated by gel electrophoresis, showing migration of the unreacted substrate (a) to the anode (top), and the product (b), which is more negatively charged because of phosphorylation by PKC, moving towards the cathode (bottom).

T1 sequence (P05771 whole entry, species assumed): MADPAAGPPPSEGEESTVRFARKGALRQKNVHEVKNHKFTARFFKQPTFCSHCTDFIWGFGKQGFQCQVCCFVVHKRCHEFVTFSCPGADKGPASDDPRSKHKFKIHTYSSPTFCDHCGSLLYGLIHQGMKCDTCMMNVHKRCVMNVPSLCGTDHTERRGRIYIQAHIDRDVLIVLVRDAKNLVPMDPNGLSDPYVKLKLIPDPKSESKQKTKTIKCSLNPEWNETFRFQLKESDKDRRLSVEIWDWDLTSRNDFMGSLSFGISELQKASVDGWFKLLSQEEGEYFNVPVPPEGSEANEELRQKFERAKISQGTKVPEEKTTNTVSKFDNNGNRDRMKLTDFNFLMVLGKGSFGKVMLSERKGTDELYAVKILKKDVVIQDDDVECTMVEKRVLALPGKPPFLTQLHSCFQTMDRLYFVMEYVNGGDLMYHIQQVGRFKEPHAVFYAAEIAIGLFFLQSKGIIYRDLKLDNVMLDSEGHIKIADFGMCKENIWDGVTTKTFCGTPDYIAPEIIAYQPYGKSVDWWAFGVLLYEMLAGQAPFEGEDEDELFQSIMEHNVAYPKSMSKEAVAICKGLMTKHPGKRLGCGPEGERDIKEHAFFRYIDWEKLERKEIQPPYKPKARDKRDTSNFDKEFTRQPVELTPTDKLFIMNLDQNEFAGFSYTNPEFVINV
T3 sequence (Q04759 whole entry): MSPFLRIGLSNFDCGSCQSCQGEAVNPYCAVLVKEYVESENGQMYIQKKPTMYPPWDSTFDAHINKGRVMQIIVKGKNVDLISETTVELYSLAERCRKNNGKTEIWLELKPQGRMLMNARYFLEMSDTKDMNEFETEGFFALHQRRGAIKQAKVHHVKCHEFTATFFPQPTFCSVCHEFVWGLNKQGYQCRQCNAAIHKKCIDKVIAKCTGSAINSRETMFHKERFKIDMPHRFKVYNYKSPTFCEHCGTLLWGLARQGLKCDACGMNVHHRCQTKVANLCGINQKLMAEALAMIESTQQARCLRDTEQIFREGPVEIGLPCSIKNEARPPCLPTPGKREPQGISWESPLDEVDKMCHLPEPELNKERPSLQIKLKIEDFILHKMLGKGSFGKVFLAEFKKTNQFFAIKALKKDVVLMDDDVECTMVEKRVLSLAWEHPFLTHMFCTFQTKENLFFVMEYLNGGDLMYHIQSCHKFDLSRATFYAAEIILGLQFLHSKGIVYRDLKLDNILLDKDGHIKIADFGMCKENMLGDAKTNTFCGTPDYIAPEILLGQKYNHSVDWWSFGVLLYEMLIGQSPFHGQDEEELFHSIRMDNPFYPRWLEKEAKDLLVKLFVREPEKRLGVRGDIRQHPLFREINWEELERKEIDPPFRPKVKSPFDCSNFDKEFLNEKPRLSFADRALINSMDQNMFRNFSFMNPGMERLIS

## CCC/C=C/C=C/C(=O)O[C@H]1/C(=C/C(=O)OC)C[C@H]2C[C@H]([C@@H](C)O)OC(=O)C[C@H](O)C[C@@H]3C[C@H](OC(C)=O)C(C)(C)[C@](O)(C[C@@H]4C/C(=C/C(=O)OC)C[C@H](/C=C/C(C)(C)[C@]1(O)O2)O4)O3 [bryostatin-1]
PKCβ
  number of PKCβ transfected cells with Golgi-like fluorescence: decreases the number of cells
[1]
  induction of respiratory burst (H2O2, DCFH-DA): All compounds except Bryostatin induced a respiratory burst
PKCγ
  translocation of PKCγ from cytoplasm to plasma membrane: not with bryostatin-1
PKCθ
  translocation of PKCθ: translocated
PKCζ
  translocation of PKCζ: fail to induce translocation

## CC1=C[C@]23C(=O)[C@@H](C=C(CO)[C@@H](O)[C@]2(O)[C@H]1O)[C@H]1[C@@H](C[C@H]3C)C1(C)C [Ingenol]
HIV-strain pNL4-3
  reduction of HIV-1 replication rate: approximately 35%

## C/C=C(/C)C(=O)O[C@H]1C(C)=C[C@]23C(=O)[C@@H](C=C(CO)[C@@H](O)[C@]12O)[C@H]1[C@@H](C[C@H]3C)C1(C)C [PEP005, ingenol-3-angelate]
[2]
  phagocytosis of fluorescent latex spheres in PBMCs: stimulate phagocytosis
PKCβ
  number of PKCβ transfected cells with Golgi-like fluorescence: decreases the number of cells
PKCβ; TPA 100 ng/mL, bryostatin-1 5 pg/mL, PEP003 2.25 μg/mL (5 μM), PEP005 670 μg/mL (1.5 μM)
  translocation of PKCβ from cytoplasm to plasma membrane: translocated from the cytoplasm to the plasma membrane
Adenovirus 5; 67 ng/mL
  increase in adenovirus replication (number of stained cells): 344%
PKCγ
  translocation of PKCγ from cytoplasm to plasma membrane: translocated from the cytoplasm to the plasma membrane
PKCθ
  translocation of PKCθ: does not induce any change
PKCα
  translocation of PKCα from cytoplasm to plasma membrane: translocated from the cytoplasm to the plasma membrane
PKCζ
  translocation of PKCζ: fail to induce translocation

## C/C=C(/C)C(=O)O[C@H]1C(C)=C[C@]23C(=O)[C@H](C=C(C)[C@@H](O)[C@]12O)[C@H]1[C@@H](C[C@H]3C)C1(C)C [PEP006, 20-deoxy-ingenol-3-angelate]
[2]
  phagocytosis of fluorescent latex spheres in PBMCs: stimulate phagocytosis
Adenovirus 5; 295 ng/mL
  increase in adenovirus replication (number of stained cells): 256%

## bisindolylmaleimide
[3]
  binds to the phorbol ester binding site of PKC: does not

## C/C=C(/C)C(=O)O[C@H]1C(C)=C[C@]23C(=O)[C@@H](C=C(COC(C)=O)[C@@H](O)[C@]12O)[C@H]1[C@@H](C[C@H]3C)C1(C)C [PEP008, 20-O-acetyl-ingenol-3-angelate]
[2]
  phagocytosis of fluorescent latex spheres in PBMCs: stimulate phagocytosis
[4]
  survival of melanoma cells: 12%
Adenovirus 5; 226 ng/mL
  increase in adenovirus replication (number of stained cells): 248%
[5]
  survival of normal fibroblasts: 100%
[6]
  survival of normal fibroblasts: 100%
[7]
  survival of melanoma cells: 9%

## phosphatidyl serine
Rat brain PKC
  activation of PKC (FIG. 1): strong activation
